# Reference: patent US8802439B2, “Methods for enhancing infectivity of retroviruses” (priority 2009, dated 2014)
# Entries after “also recorded” stand apart in the source; their conditions may differ.
# Tests used:
# Pin1 PPIase = Pin1 PPIase (Homo sapiens, UniProt Q13526); conditions: Uchida et al. 2003; cited from earlier work
# HCV = HCV infectivity titer of supernatants from persistently infected HUH-7 cells; assay type: cell-based; conditions: PiB 16 μM and 8 μM, 1 hour pre-treatment plus 9 hours at 37° C.
# Method: (§1) Cells persistently infected with HCV were treated with vehicle (DMSO), an MTP inhibitor (BMS-200150) capable of inhibiting HCV secretion, or with two doses of PiB (16 μM and 8 μM). After 1 hour of pre-treatment at 37° C., cells were washed with warm PBS and further incubated in normal medium containing the same drugs for an additional 9 hours at 37° C. Cell supernatants containing infectious HCV were collected for infectivity titer determination.
# as §1, with “Infection assays for HCV: Persistently” for “Cells persistently”, “cells” for “with HCV”, “inhibitors” for “drugs”, “determination. […] Note that Pin1 is able to block HIV-1 in the HUH-7 cell line used to propagate HCV.” for “determination.”
# Persistently infected HUH-7 cells were treated with solvent DMSO (circles), or increasing concentrations of PiB (squares). After 1 hour of pre-treatment cells were washed and further incubated in normal medium containing the same inhibitors for an additional 9 hours at 37° C. Cell supernatants containing infectious HCV were collected for infectivity titer determination.
# HIV-1 [1] = test: Single-round infectivity on TZM-bl cells of HIV-1 produced in Pin1-inhibited 293T cells (Galacton-Star galactosidase assay); assay type: cell-based
# Text: Viral inocula from transfections above were normalized to equal virion particle number via p24 ELISA and used to infect target CD4^+ HeLa cells (1×10^5 TZM-bl). Infectivity was scored using the Galacton-Star enzymatic galactosidase activity assay, and infectivity quantified by relative […] units (R.F.U).
# (§2) Plasmids: Laboratory-adapted provirus NL4.3, and the CypA-independent NL4.3 CAi2 were kindly provided by Akio Adachi (Department of Virology, Institute of Health Biosciences, The University of Tokushima Graduate School, JAPAN). Mutant R9G89V was a gift from P. Gallay (TSR1) as were NL4.3-GFP and SIV-GFP (originally Dana Gabuzda, Dana Farber Cancer Institute). NL4.3 A92E was kindly provided by W. Phares (Genetics Unit, Novartis Forschungsinstitut, Vienna, Austria). R9Δgp160 plasmid clone was kindly provided by C. Aiken (Vanderbilt Medical Center). VSV-G (CMV-VSV-G) was kindly provided by D. Trono (École Polytechnique Fédérale de Lausanne). Both bMLV-GFP and nMLV-GFP in the form of pCIG3-N, pCIG3-B as well as pCNCG were kindly provided by J. Stoye (National Institute for Medical Research, UK). Isomerase mutant Pin1 (pFLAG-Pin1R68,69A) and WW-domain mutant Pin1 (pFLAG-Pin1 W34A) were constructed by site-directed mutagenesis. Pseudotyping experiments were performed using DNA constructs encoding the VSV-G generously provided by D. Trono. Human Pin1 was cloned into pFLAG (Sigma-Aldrich) making pFLAG-Pin1. Viruses were produced by transfection of 293T cells using either GeneJuice (Novagen) or calcium phosphate. […] All viruses were harvested 24-48 hours post-transfection and filtered (0.2-μM filter, Steriflip Millipore). HIV-1 viruses were normalized by p24 ELISA (Alliance HIV-1 p24 Antigen ELISA Kit, Perkin Elmer), and/or were normalized via the EnzChek® Reverse Transcriptase Assay Kit (E-22064) (Molecular Probes).
# Infection assays for retrovirus: Single-round infections: CD4^+ TZM-bl 100,000 cells/well/mL were seeded onto 24-well plates 24 hours prior to infection. These cells were infected in quadruplicate to 24-well plates. Infectivity was scored using an enzymatic galactosidase activity assay. Specifically, infected TZM-bl cells were washed and lysed, and 20 μl of lysate was transferred to a 96-well plate for detecting β-galactosidase activity. 100 μl of reaction buffer Galacton-Star substrate (Applied Biosystems, Bedford, Mass.), diluted 1:50, was added to 20 μl of lysate, and the light emission was measured over 1 second in a microplate luminometer after 30 minutes incubation. For human PBMC infections, cells were exposed to 10 ng of wild-type virus for 6 hours, washed, and split into two flasks: one with 10 μM PiB added on day 0 and 3, and one without PiB. Replication was monitored by p24 ELISA. For measuring infectivity of GFP-virus, 50,000 TZMb1, sMAGI, OMK, Vero, BSC-1 and CV-1 cells/well/mL were seeded onto 6-well plates respectively 24 hours prior to infection. Viruses were used to infect in duplicate wells, incubated for 48 hours, washed with PBS, trypsinized, fixed in 1% formaldehyde and subsequently analyzed by fluorescence-activated cell sorting (FACS) for percentage cells infected.
# To examine a potential role for Pin1 in HIV-1 replication we used two inhibitors of Pin1: juglone and PiB. […] 293T cells were transfected with a proviral construct encoding wild-type HIV-1 in the presence or absence of PiB or juglone.
# [2] = system: other prolyl isomerases such as CypA or FKBP; conditions: cited from earlier work
# HIV-1 [3] = test: HIV-1 viral production in 293T producer cells, p24 ELISA of supernatants; assay type: cell-based; conditions: 293T cells transfected with NL4.3; 2.0 μM juglone, 2.0 μM or 10.0 μM PiB
# Text: as §2, with “HIV-1 viruses were normalized by p24 ELISA (Alliance HIV-1 p24 Antigen ELISA Kit, Perkin Elmer), and/or were normalized via the EnzChek® Reverse Transcriptase Assay Kit (E-22064) (Molecular Probes).” left out
# E. coli PPIase, parvulin = E. coli PPIase, parvulin (Escherichia coli, UniProt P0A9L5); conditions: covalent modification of two cysteine residues, slow process; cited from earlier work
# Sequence of E. coli PPIase, parvulin (P0A9L5 whole entry): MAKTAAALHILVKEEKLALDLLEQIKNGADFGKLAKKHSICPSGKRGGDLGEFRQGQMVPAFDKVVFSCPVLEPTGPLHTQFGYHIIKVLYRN
# Sequence of Pin1 PPIase (Q13526 whole entry): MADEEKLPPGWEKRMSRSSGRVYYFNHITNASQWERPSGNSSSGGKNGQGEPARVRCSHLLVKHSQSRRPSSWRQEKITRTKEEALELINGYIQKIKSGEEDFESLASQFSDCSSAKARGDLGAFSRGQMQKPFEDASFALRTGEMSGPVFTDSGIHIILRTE
smiles,measurement,setting,value
"CCOC(=O)CN1C(=O)c2ccc3c4ccc5c6c(ccc(c7ccc(c2c37)C1=O)c64)C(=O)N(CC(=O)OCC)C5=O [PiJ, diethyl-1,3,8,10-tetrahydro-1,3,8,10-tetraoxoanthra[2,1,9-def:6,5,10-d′e′f′]diisoquinoline-2,9-diacetate]",inhibition of the PPIase activity of Pin1,Pin1 PPIase,potently inhibit
O=C1c2ccccc2CN1C1CCN(CCC(c2ccccc2)c2ccccc2)CC1 [BMS-200150],infectious HCV in cell supernatants (infectivity titer),HCV,virtual absence of particles
"O=C1C=CC(=O)c2c(O)cccc21 [juglone, 5-hydroxy-1,4-naphthoquinone]",boost of infectivity,HIV-1 [1],2 fold
same,"inhibition of other PPIase families (CypA, FKBP)",[2],do not inhibit; also recorded: not affected
same,viral production (HIV-1 capsid in viral supernatants by p24 ELISA),HIV-1 [3],Neither inhibitor influences viral production; also recorded: do not alter viral production
same,inactivation of E. coli parvulin,"E. coli PPIase, parvulin",inactivates
"CN1C(=O)c2ccc3c4c(ccc(c24)C1=O)C(=O)N(C)C3=O [PiA, 2,7-dimethylbenzo[lmn][3,8]phenanthroline-1,3,6,8 (2H,7H)-tetrone]",inhibition of the PPIase activity of Pin1,Pin1 PPIase,potently inhibit
